Measurements as given in PubChem BioAssay AID1845210 (Molecular Pharmacology Branch, DTP, NCI, 2023).
Several values for one entry are separate records, joined by “and”; a condition that tells them apart may be missing. Identical values can stand only once.

Tested on: NCI-H226 complex tumor spheroids, viability
Assay: Anticancer human tumor NCI-H226 cell line growth inhibition;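 also: spheroids exposed to compound for 7 days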;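 as to viability, T/C: 100% = DMSO vehicle control viability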
Details: for viability, T/C: stronger effect = lower value
Description: Multicellular complex tumor spheroid response to DNA repair inhibitors in combination with DNA-damaging drugs
This study explores the anticancer activities of DNA-damaging drugs and inhibitors of DNA damage repair, both as single agents and in combinations. Complex tumor spheroids comprised of malignant cells, endothelial cells and mesenchymal stem cells served as an in vitro model for human solid tumors. This model system incorporates physiologically relevant features and patient-derived or established malignant cell lines with clinically relevant genetic alterations from many tumor types. Twenty-six patient-derived or established malignant cell lines were evaluated representing sarcoma, melanoma, small cell lung cancer (SCLC), non-small cell lung cancer (NSCLC), as well as bladder, ovarian and pancreatic cancers. The concentration ranges selected for each drug and investigational agent were based upon clinically achievable concentrations if the clinical Cmax of the agent was known.
Compounds. The drugs and compounds olaparib (NSC753686), talazoparib (NSC767125), berzosertib (NSC777718), elimusertib (NSC800525), nedisertib (NSC802822), VX-984 (NSC792969), AZD-1390 (NSC803789), temozolomide (NSC362856), topotecan (NSC609699), trabectedin (NSC813783), staurosporine (NSC755774), and gemcitabine (NSC613327) were obtained from the National Cancer Institute (NCI) Developmental Therapeutics Program Chemical Repository. The FDA-approved anticancer drug set is available from the Developmental Therapeutics Program at https://dtp.cancer.gov/organization/dscb/obtaining/available_plates.htm. […] The stock solutions were prepared in dimethyl sulfoxide (DMSO, Sigma-Aldrich, St. Louis, MO, cat. D2650) at 400-fold the tested concentration and stored at -70 degrees C. Prior to their use, the stock solutions were diluted in fresh medium and the final DMSO concentration in the assay was 0.25% (v/v). All drugs and investigational agents were tested over a range starting from a high concentration at or near the clinical Cmax and decreasing in half-log increments. If the clinical Cmax for an agent had not been determined, the highest concentration tested was 10 microM.
Cell Lines. The patient-derived cancer cell (PDC) lines: 156681-154-R-J1-PDC, 283228-195-R-J1-PDC, 287954-098-R-J1-PDC, 292921-168-R-J2-PDC, 349418-098-R-PDC, 425362-245-T-J1-PDC, 556581-035-R-J1-PDC, and BL0293-F563-PDC were received from the NCI Patient-Derived Models Repository (PDMR, https://pdmr.cancer.gov). The established cell lines HS-SY-2 (RRID:CVCL_8719), MPNST, and SYO-1 (RRID:CVCL_7146) were obtained from the Sloan Kettering Institute. The alveolar soft parts sarcoma cell line ASPS-1 (RRID:CVCL_S738) was established at the NCI and grown from internal seed stocks. The following established cell lines were purchased from the American Type Culture Collection (ATCC, Manassas, VA): G-401 (ATCC, cat. CRL-1441, RRID:CVCL_0270), SW982 (ATCC, cat. HTB-93, RRID:CVCL_1734), VA-ES-BJ (ATCC, cat. CRL-2138, RRID:CVCL_1785), NCI-H719 (ATCC, cat. CRL-5837, RRID:CVCL_1582), NCI-H196 (ATCC, cat. CRL-5823, RRID:CVCL_1509), NCI-H841 (ATCC, cat. CRL-5845, RRID:CVCL_1595), NCI-H1618 (ATCC, cat. CRL-5879, RRID:CVCL_1480), NCI-H1876 (ATCC, cat. CRL-5902, RRID:CVCL_1503), DMS 114 (ATCC, cat. CRL-2066; RRID:CVCL_1174), NCI-H211 (ATCC, cat. CRL-5824; RRID:CVCL_1529), and SW 1271 (ATCC, cat. CRL-2177, RRID:CVCL_1716). The small cell lung cancer cell line COR-L88 was purchased from Sigma-Aldrich (cat. 92031917-1VL, RRID:CVCL_1141). The non-small cell lung cancer cell lines NCI-H226 (RRID:CVCL_1544) and NCI-H322M (RRID:CVCL_1557) were established at the NCI and grown from internal seed stocks. Pooled donor human umbilical vein endothelial cells (HUVEC, Lonza, cat. CC-2519) and human mesenchymal stem cells (hMSC, Lonza, cat. PT-2501) were purchased from Lonza (Walkersville, MD).
Cell Culture. All cells were maintained in an incubator at 37 degrees C and 5% CO2 with 95% humidity. […]

## COc1cc(C)[nH]c(=O)c1CN1CCc2c(Cl)cc(C(OC)C3COC3)c(Cl)c2C1=O (stereo unspecified) + COc1cc2c(cc1O)CCNC21CSC2c3c(OC(C)=O)c(C)c4c(c3C(COC1=O)N1C(O)C3Cc5cc(C)c(OC)c(O)c5C(C21)N3C)OCO4
Curve of first compound, second compound 30 pM
  IC50: > 10 µM
Curve of first compound, second compound 94.9 pM
  IC50: > 10 µM
Curve of first compound, second compound 0.0003 µM
  IC50: > 10 µM
Curve of first compound, second compound 0.000949 µM
  IC50: > 10 µM
Curve of first compound, second compound 0.003 µM
  IC50: < 0.0316 µM
Second compound 30 pM, first compound 0.0316 µM
  viability, T/C: 115%
Second compound 30 pM, first compound 0.1 µM
  viability, T/C: 131%
Second compound 30 pM, first compound 0.316 µM
  viability, T/C: 128%
Second compound 30 pM, first compound 1 µM
  viability, T/C: 115%
Second compound 30 pM, first compound 3.16 µM
  viability, T/C: 126%
Second compound 30 pM, first compound 10 µM
  viability, T/C: 129%
Second compound 94.9 pM, first compound 0.0316 µM
  viability, T/C: 103%
Second compound 94.9 pM, first compound 0.1 µM
  viability, T/C: 113%
Second compound 94.9 pM, first compound 0.316 µM
  viability, T/C: 125%
Second compound 94.9 pM, first compound 1 µM
  viability, T/C: 119%
Second compound 94.9 pM, first compound 3.16 µM
  viability, T/C: 127%
Second compound 94.9 pM, first compound 10 µM
  viability, T/C: 114%
Second compound 0.0003 µM, first compound 0.0316 µM
  viability, T/C: 133%
Second compound 0.0003 µM, first compound 0.1 µM
  viability, T/C: 133%
Second compound 0.0003 µM, first compound 0.316 µM
  viability, T/C: 130%
Second compound 0.0003 µM, first compound 1 µM
  viability, T/C: 148%
Second compound 0.0003 µM, first compound 3.16 µM
  viability, T/C: 140%
Second compound 0.0003 µM, first compound 10 µM
  viability, T/C: 136%
Second compound 0.000949 µM, first compound 0.0316 µM
  viability, T/C: 103%
Second compound 0.000949 µM, first compound 0.1 µM
  viability, T/C: 119%
Second compound 0.000949 µM, first compound 0.316 µM
  viability, T/C: 111%
Second compound 0.000949 µM, first compound 1 µM
  viability, T/C: 115%
Second compound 0.000949 µM, first compound 3.16 µM
  viability, T/C: 114%
Second compound 0.000949 µM, first compound 10 µM
  viability, T/C: 109%
Second compound 0.003 µM, first compound 0.0316 µM
  viability, T/C: 3.38%
Second compound 0.003 µM, first compound 0.1 µM
  viability, T/C: 1.73%
Second compound 0.003 µM, first compound 0.316 µM
  viability, T/C: 1.1%
Second compound 0.003 µM, first compound 1 µM
  viability, T/C: 1.4%
Second compound 0.003 µM, first compound 3.16 µM
  viability, T/C: 1.04%
Second compound 0.003 µM, first compound 10 µM
  viability, T/C: 0.69%

## CC(C)n1c(=O)n(C)c2cnc3cc(F)c(-c4ccc(OCCCN5CCCCC5)nc4)cc3c21
Compound 0.0316 µM
  viability, T/C: 99.6% and 101% and 93.1%
Compound 0.1 µM
  viability, T/C: 103% and 96.9% and 104%
Compound 0.316 µM
  viability, T/C: 103% and 112% and 102%
Compound 1 µM
  viability, T/C: 111% and 98% and 84.2%
Compound 3.16 µM
  viability, T/C: 107% and 97.5% and 102%
Curve of compound
  IC50: > 10 µM and 5.69 µM and 7.57 µM
